Data as given in article PMC5706701, “Development of a homogenous high-throughput assay for inositol hexakisphosphate kinase 1 activity” (PLoS ONE, 2017).
Structures can show the parent of a compound that is named as a salt.

Target: T1, Human IP6K1 (Homo sapiens, UniProt Q92551)
T1 construct: GST (N, cleaved yes); made in house; host or cells: C43 E. coli, pGEX-6P-2
Assay: IP6K1 high-throughput screen of the Sigma LOPAC (ADP-Glo Max, single point);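 also: final compound concentration 10µM in 5% DMSO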
Assay type: biochemical

[1] = LOPAC single-point screen, ADP-Glo Max luminescence raw signal per well
[2] = LOPAC single-point screen, Z-score relative to plate average and StDev
[3] = Sigma LOPAC single-point screen, ADP-Glo Max raw signal per well
[4] = Sigma LOPAC single-point screen, Z-score from plate average and StDev
[5] = LOPAC single-point screen, ADP-Glo Max raw signal per well
[6] = LOPAC single-point screen, Z-score against plate average and StDev
[7] = LOPAC single-point screen, Z-score from raw signal with plate average and StDev

T1 sequence (Q92551 whole entry): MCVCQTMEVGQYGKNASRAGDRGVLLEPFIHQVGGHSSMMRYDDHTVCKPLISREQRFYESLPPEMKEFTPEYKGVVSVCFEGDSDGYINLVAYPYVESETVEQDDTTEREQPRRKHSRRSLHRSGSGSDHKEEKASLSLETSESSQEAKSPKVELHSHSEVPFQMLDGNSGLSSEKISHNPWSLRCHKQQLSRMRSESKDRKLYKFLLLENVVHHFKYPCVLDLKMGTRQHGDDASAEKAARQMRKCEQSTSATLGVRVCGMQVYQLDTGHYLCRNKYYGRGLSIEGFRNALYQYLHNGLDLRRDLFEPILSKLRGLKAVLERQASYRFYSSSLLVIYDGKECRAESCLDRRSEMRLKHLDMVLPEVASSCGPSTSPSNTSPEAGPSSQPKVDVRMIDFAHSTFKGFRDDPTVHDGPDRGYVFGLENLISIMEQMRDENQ

## C[n+]1cc2c3c(ccc2c2ccc4cc5c(cc4c21)OCO5)OCO3 [Sanguinarine chloride]
[1]
  Raw Signal: 52602
[2]
  Z-score: -0.6648

## 17alpha-hydroxyprogesterone
[3]
  Raw Signal: 57278
[4]
  Z-score: 0.4287

## COc1cc2ncnc(Nc3cccc(Cl)c3)c2cc1OC [Tyrphostin AG 1478]
[3]
  Raw Signal: 57891
[4]
  Z-score: 0.3628

## COc1ccc2c(c1)c(CC(=O)O)c(C)n2C(=O)c1ccc(Cl)cc1 [Indomethacin]
[5]
  Raw Signal: 54719
[6]
  Z-score: 0.05469

## c1ccc2cc(-c3ncc[nH]3)ccc2c1 [Benazoline oxalate]
[3]
  Raw Signal: 61441
[4]
  Z-score: 0.6214

## COc1ccc(NC(=O)c2ccc(-c3ccc(-c4noc(C)n4)cc3C)cc2)cc1N1CCN(C)CC1.Cl [GR 127935 hydrochloride]
[1]
  Raw Signal: 51529
[2]
  Z-score: -0.4813

## Oc1ccc(O)cc1 [Hydroquinone]
[3]
  Raw Signal: 59753
[4]
  Z-score: 0.9314

## NC(=S)c1ccc[n+]([C@@H]2O[C@@H](COP(=O)([O-])OP(=O)(O)OC[C@H]3O[C@@H](n4cnc5c(N)ncnc54)C(OP(=O)([O-])O)[C@H]3O)C(O)C2O)c1.[Na+] (stereo partly shown) [Thio-NADP sodium]
[5]
  Raw Signal: 56703
[6]
  Z-score: 0.132

## CC(=O)C(C)=NO [2,3-Butanedione monoxime]
[1]
  Raw Signal: 66346
LOPAC single-point screen, Z-score from plate average and StDev
  Z-score: 1.485

## COC(=O)[C@H]1[C@H]2C[C@H]3c4[nH]c5ccccc5c4CCN3C[C@H]2CC[C@@H]1O [Rauwolscine hydrochloride]
[5]
  Raw Signal: 54997
[7]
  Z-score: -0.1995

## CN(C)C(=O)C(CCN1CCC(O)(c2ccc(Cl)cc2)CC1)(c1ccccc1)c1ccccc1 [Loperamide hydrochloride]
[1]
  Raw Signal: 51056
[2]
  Z-score: -0.5608

## S-Nitroso-N-acetylpenicillamine
[5]
  Raw Signal: 52205
[7]
  Z-score: -0.3677

## CC(C)[C@H]1CN[C@H](C(=O)O)[C@H]1CC(=O)O [Dihydrokainic acid]
[5]
  Raw Signal: 53229
[7]
  Z-score: -0.3936

## Nc1nc(SCc2ccc([N+](=O)[O-])cc2)c2ncn([C@@H]3O[C@H](CO)[C@@H](O)[C@H]3O)c2n1 [S-(4-Nitrobenzyl)-6-thioguanosine]
[3]
  Raw Signal: 63053
[4]
  Z-score: 0.9053

## CN(C)c1nc(N)c(C(=O)NC(=N)N)nc1Cl [5-(N,N-Dimethyl)amiloride hydrochloride]
[5]
  Raw Signal: 56769
[7]
  Z-score: -0.2015

## C#C[C@]1(O)CC[C@H]2[C@@H]3CCC4=Cc5oncc5C[C@]4(C)[C@H]3CC[C@@]21C [Danazol]
[5]
  Raw Signal: 54357
[7]
  Z-score: -0.1645

## Ro 20-1724
[1]
  Raw Signal: 54602
[2]
  Z-score: -0.5832

## NC(=O)c1ccccc1 [Benzamide]
[1]
  Raw Signal: 54873
[2]
  Z-score: -0.5354

## CC(C)NC[C@@H](O)c1ccc(O)c(O)c1.O=C(O)C(O)C(O)C(=O)O [S(+)-Isoproterenol (+)-bitartrate]
[5]
  Raw Signal: 55551
[6]
  Z-score: 0.1945

## c1ccc2c(c1)OCC(C1=NCCN1)O2 (stereo not shown) [Idazoxan hydrochloride]
[3]
  Raw Signal: 58161
[4]
  Z-score: 0.633

## O=[N+]([O-])c1ccc(CSc2ncnc3c2ncn3[C@@H]2O[C@H](CO)[C@@H](O)[C@H]2O)cc1 [S-(4-Nitrobenzyl)-6-thioinosine]
[1]
  Raw Signal: 50827
[2]
  Z-score: -0.5993

## Cn1c(=O)[nH]c2ncn(C)c2c1=O [1,7-Dimethylxanthine]
[5]
  Raw Signal: 53863
[7]
  Z-score: -0.2648

## C#CCN1C(C)=C(C(=O)OC)C(c2cccc([N+](=O)[O-])c2)C(C(=O)OCC)=C1C (stereo not shown) [MRS 1845]
[5]
  Raw Signal: 54765
[6]
  Z-score: 0.06242

## CC(=N)NCCC[C@H](N)C(=O)O.Cl
[5]
  Raw Signal: 54044
[6]
  Z-score: -0.05873

## CCCCc1oc2ccccc2c1C(=O)c1cc(I)c(OCCN(CC)CC)c(I)c1 [Amiodarone hydrochloride]
[5]
  Raw Signal: 57216
[7]
  Z-score: -0.1228

## CNCCc1ccc(O)c(O)c1.Cl [N-Methyldopamine hydrochloride]
[1]
  Raw Signal: 45936
[2]
  Z-score: -1.875

## O=C1NC(c2cccc([N+](=O)[O-])c2)=CCN1c1ccccc1O [Icilin]
[1]
  Raw Signal: 49844
[2]
  Z-score: -1.081

## N#CCCN.N#CCCN.O=C(O)/C=C/C(=O)O [3-Aminopropionitrile fumarate]
[1]
  Raw Signal: 53618
[2]
  Z-score: -0.7565

## COC(=O)c1c(C)[nH]c(C)c1C(=O)c1ccccc1Cc1ccccc1 [FPL 64176]
[5]
  Raw Signal: 56544
[6]
  Z-score: 0.2796

## O=C(O)[C@H]1CCCN[C@H]1C(=O)O (racemic)
[3]
  Raw Signal: 60739
[4]
  Z-score: 0.9161

## CC[C@@H]1C(=O)OC[C@@H]1Cc1cncn1C.Cl [(+)-Pilocarpine hydrochloride]
[3]
  Raw Signal: 57845
[4]
  Z-score: 0.5799

## CCCN1CCC[C@H](c2cccc(O)c2)C1.Cl [R(+)-3PPP hydrochloride]
[1]
  Raw Signal: 50646
[2]
  Z-score: -1.045
